Experimental data from patent publication US20230087118A1, “IMIDAZO[1,2-a][sequence] DERIVATIVES AND THEIR USE IN THE TREATMENT OF DISEASE” (priority 2019, published 2023).
Structures can show the parent of a compound that is named as a salt. Where two headings read alike, the source gives them in different places.

Target: T1, IRAK4 (Homo sapiens, UniProt Q9NWZ3)
T1 sequence (Q9NWZ3 1-460): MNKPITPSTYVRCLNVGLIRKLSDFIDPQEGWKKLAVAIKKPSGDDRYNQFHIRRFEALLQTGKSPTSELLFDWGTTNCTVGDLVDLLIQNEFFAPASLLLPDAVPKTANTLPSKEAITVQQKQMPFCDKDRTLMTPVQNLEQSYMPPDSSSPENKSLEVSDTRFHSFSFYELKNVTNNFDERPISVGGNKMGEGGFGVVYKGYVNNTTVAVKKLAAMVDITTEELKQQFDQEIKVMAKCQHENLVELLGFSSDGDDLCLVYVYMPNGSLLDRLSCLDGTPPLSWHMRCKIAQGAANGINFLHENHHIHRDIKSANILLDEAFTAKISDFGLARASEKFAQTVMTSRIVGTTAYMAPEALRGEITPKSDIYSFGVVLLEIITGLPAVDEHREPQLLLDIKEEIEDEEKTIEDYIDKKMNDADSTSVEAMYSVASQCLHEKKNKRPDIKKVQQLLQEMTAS
Assay: biochemical

[1] = IRAK4 Biochemical Assay (1 mM ATP, 2 h) IC50 (μM), 1 mM ATP, 2 h, 100 pM IRAK4

Row | Structure (SMILES) | IC50 [µM] | IC50 [1] [µM]
1 | CC(C)Oc1cc2nc(C34COC(C)(C3)C4)cn2cc1C(=O)Nc1cccc2cn(C)nc12 [Example 318, 7-Isopropoxy-N-(2-methyl-2H-indazol-7-yl)-2-(1-methyl-2-oxabicyclo[2.1.1]hexan-4-yl)imidazo[1,2-a]pyridine-6-carboxamide] | 0.001 | 
2 | CC(C)Oc1cc2nc(C34COC(C)(C3)C4)cn2cc1C(=O)Nc1ccnc2cccnc12 [Example 319, 7-Isopropoxy-2-(1-methyl-2-oxabicyclo[2.1.1]hexan-4-yl)-N-(1,5-naphthyridin-4-yl)imidazo[1,2-a]pyridine-6-carboxamide] | 0.0016 | 
3 | CC(C)Oc1cc2nc(C34COC(C)(C3)C4)cn2cc1C(=O)Nc1cncc2cccnc12 [Example 320, 7-Isopropoxy-2-(1-methyl-2-oxabicyclo[2.1.1]hexan-4-yl)-N-(1,6-naphthyridin-8-yl)imidazo[1,2-a]pyridine-6-carboxamide] | 0.0004 | 
4 | CC(C)Oc1cc2nc(C34COC(C)(C3)C4)cn2cc1C(=O)Nc1cnc2cccnn12 [Example 321, N-(imidazo[1,2-b]pyridazin-3-yl)-7-isopropoxy-2-(1-methyl-2-oxabicyclo[2.1.1]hexan-4-yl)imidazo[1,2-a]pyridine-6-carboxamide 2,2,2-trifluoroacetate] |  | 0.0003
5 | CC(C)Oc1cc2nc(C34COC(C)(C3)C4)cn2cc1C(=O)Nc1cnn2cc(C3CC3)cnc12 [Example 322, N-(6-cyclopropylpyrazolo[1,5-a]pyrimidin-3-yl)-7-isopropoxy-2-(1-methyl-2-oxabicyclo[2.1.1]hexan-4-yl)imidazo[1,2-a]pyridine-6-carboxamide] | 0.0019 | 
6 | COc1ncccc1NC(=O)c1cn2c(F)c(C34COC(C)(C3)C4)nc2cc1OC(C)C [Example 325, 3-Fluoro-7-isopropoxy-N-(2-methoxypyridin-3-yl)-2-(1-methyl-2-oxa-bicyclo[2.1.1]hexan-4-yl)imidazo[1,2-a]pyridine-6-carboxamide trifluoroacetate] |  | 0.0086
7 | CC(C)Oc1cc2nc(C34COC(C)(C3)C4)c(F)n2cc1C(=O)Nc1cccn(C(F)F)c1=O [Example 326, N-(1-(difluoromethyl)-2-oxo-1,2-dihydropyridin-3-yl)-3-fluoro-7-isopropoxy-2-(1-methyl-2-oxabicyclo[2.1.1]hexan-4-yl)imidazo[1,2-a]pyridine-6-carboxamide] | 0.0019 | 
8 | CC(C)Oc1cc2nc(C34COC(C)(C3)C4)c(F)n2cc1C(=O)Nc1ccn(C)n1 [Example 327, 3-Fluoro-7-isopropoxy-N-(1-methyl-1H-pyrazol-3-yl)-2-(1-methyl-2-oxabicyclo[2.1.1]hexan-4-yl)imidazo[1,2-a]pyridine-6-carboxamide trifluoroacetate] |  | 0.0372
9 | CC(C)Oc1cc2nc(C34COC(C)(C3)C4)c(F)n2cc1C(=O)Nc1cnn2cccnc12 [Example 328, 3-Fluoro-7-isopropoxy-2-(1-methyl-2-oxabicyclo[2.1.1]hexan-4-yl)-N-(pyrazolo[1,5-a]pyrimidin-3-yl)imidazo[1,2-a]pyridine-6-carboxamide] | 0.006 | 
10 | CC(C)Oc1cc2nc(C34COC(C)(C3)C4)c(F)n2cc1C(=O)Nc1cccc2ncnn12 [Example 329, N-([1,2,4]triazolo[1,5-a]pyridin-5-yl)-3-fluoro-7-isopropoxy-2-(1-methyl-2-oxabicyclo[2.1.1]hexan-4-yl)imidazo[1,2-a]pyridine-6-carboxamide trifluoroactate] | 0.0012 | 

Results, then the compound that gave them:

Row | IC50 [µM] | IC50 [1] [µM] | Structure (SMILES)
11 | 0.0007 |  | CC(Oc1cc2nc(C34COC(C)(C3)C4)cn2cc1C(=O)Nc1cccc(C(F)F)n1)C(F)(F)F (stereo not shown) [Example 323, N-(6-(difluoromethyl)pyridin-2-yl)-2-(1-methyl-2-oxabicyclo[2.1.1]hexan-4-yl)-7-((1,1,1-trifluoropropan-2-yl)oxy)imidazo[1,2-a]pyridine-6-carboxamide]
12 |  | 0.002 | CC(C)Oc1cc2nc(C34COC(C)(C3)C4)c(F)n2cc1C(=O)Nc1cccc(C(F)F)n1 [Example 324, N-(6-(difluoromethyl)pyridin-2-yl)-3-fluoro-7-isopropoxy-2-(1-methyl-2-oxabicyclo[2.1.1]hexan-4-yl)imidazo[1,2-a]pyridine-6-carboxamide trifluoroacetate]
13 | 0.0002 |  | CC(C)Oc1cc2nc(C3COCCO3)cn2cc1C(=O)Nc1cccc(C(F)F)n1 (stereo not shown) [Example 330, N-(6-(difluoromethyl)pyridin-2-yl)-2-(1,4-dioxan-2-yl)-7-isopropoxy-imidazo[1,2-a]pyridine-6-carboxamide]
14 | 0.002 |  | CC(C)Oc1cc2nc(C3COCCO3)cn2cc1C(=O)Nc1cnn2cccnc12 (stereo not shown) [Example 331, 2-(1,4-Dioxan-2-yl)-7-isopropoxy-N-(pyrazolo[1,5-a]pyrimidin-3-yl)imidazo[1,2-a]pyridine-6-carboxamide]
15 |  | 0.0052 | COc1ncccc1NC(=O)c1cn2cc(C34COC(C)(C3)C4)nc2cc1OC(F)F [Example 332, 7-(Difluoromethoxy)-N-(2-methoxypyridin-3-yl)-2-(1-methyl-2-oxabicyclo[2.1.1]hexan-4-yl)imidazo[1,2-a]pyridine-6-carboxamide trifluoroacetate]
16 |  | 0.0052 | CC12CC(c3cn4cc(C(=O)Nc5cccc(C(F)F)n5)c(OC(F)F)cc4n3)(CO1)C2 [Example 333, 7-(Difluoromethoxy)-N-(6-(difluoromethyl)pyridin-2-yl)-2-(1-methyl-2-oxabicyclo[2.1.1]hexan-4-yl)imidazo[1,2-a]pyridine-6-carboxamide trifluoroacetate]
17 | 0.0599 |  | CC12CC(c3cn4cc(C(=O)Nc5cccc(C(F)F)n5)ncc4n3)(CO1)C2 [Example 334, N-(6-(Difluoromethyl)pyridin-2-yl)-2-(1-methyl-2-oxabicyclo[2.1.1]hexan-4-yl)imidazo[1,2-a]pyrazine-6-carboxamide]
18 | 0.0006 |  | CCCOc1nc(C(=O)Nc2cccc(C(F)F)n2)cn2cc(C3CCOCC3)nc12 [Example 335, N-(6-(difluoromethyl)pyridin-2-yl)-8-propoxy-2-(tetrahydro-2H-pyran-4-yl)imidazo[1,2-a]pyrazine-6-carboxamide]
19 | 0.0021 |  | CC(C)Oc1nc(C(=O)Nc2cccc(C(F)F)n2)cn2cc(C34COC(C)(C3)C4)nc12 [Example 336, N-(6-(difluoromethyl)pyridin-2-yl)-8-isopropoxy-2-(1-methyl-2-oxabicyclo[2.1.1]hexan-4-yl)imidazo[1,2-a]pyrazine-6-carboxamide]
20 | 0.0004 |  | COc1ncccc1NC(=O)c1cn2cc(C34COC(C)(C3)C4)nc2c(OC(C)C)n1 [Example 337, 8-Isopropoxy-N-(2-methoxypyridin-3-yl)-2-(1-methyl-2-oxabicyclo[2.1.1]hexan-4-yl)imidazo[1,2-a]pyrazine-6-carboxamide]
21 | 0.0105 |  | CC(C)Oc1nc(C(=O)Nc2cccc(C(F)F)n2)cn2cc(C34COC(CF)(C3)C4)nc12 [Example 338, N-(6-(difluoromethyl)pyridin-2-yl)-2-(1-(fluoromethyl)-2-oxabicyclo[2.1.1]hexan-4-yl)-8-isopropoxyimidazo[1,2-a]pyrazine-6-carboxamide]
22 | 0.0008 |  | COc1ncccc1NC(=O)c1cn2cc(C34COC(CF)(C3)C4)nc2c(OC(C)C)n1 [Example 339, 2-(1-(Fluoromethyl)-2-oxabicyclo[2.1.1]hexan-4-yl)-8-isopropoxy-N-(2-methoxypyridin-3-yl)imidazo[1,2-a]pyrazine-6-carboxamide]
